Reference: Sander's compilation of Henry's law constants (doi:10.1016/s0021-9673(98)00877-2)

Assay: Henry solubility constant Hcp at 298.15 K (mol/(m3 Pa))
Conditions: reference: Dewulf et al. (1999)
For ClCC(Cl)Cl [1,1,2-trichloroethane], the “Henry solubility constant Hcp” value was 0.011. With ClC(Cl)=C(Cl)C(Cl)=C(Cl)Cl [hexachlorobutadiene] the “Henry solubility constant Hcp” value was 0.00062. For c1ccc2ccccc2c1 [naphthalene], the “Henry solubility constant Hcp” value was 0.013. In the case of Fc1ccccc1 [fluorobenzene], the “Henry solubility constant Hcp” value is reported as 0.0014. In the case of Clc1cc(Cl)cc(Cl)c1 [1,3,5-trichlorobenzene], the “Henry solubility constant Hcp” value is reported as 0.0018. For O=[N+]([O-])c1ccccc1 [nitrobenzene], the “Henry solubility constant Hcp” value was 0.023. In the case of C1CCCCC1 [cyclohexane], the “Henry solubility constant Hcp” value is reported as 5.2e-05. For Clc1cccc(Cl)c1Cl [1,2,3-trichlorobenzene], the “Henry solubility constant Hcp” value was 0.0036. With COc1ccccc1 [methoxybenzene] the “Henry solubility constant Hcp” value was 0.026. In the case of Cc1ccccc1 [methylbenzene], the “Henry solubility constant Hcp” value is reported as 0.0015. For CC(Cl)CCl (centres undefined) [1,2-dichloropropane], the “Henry solubility constant Hcp” value was 0.0035. In the case of ClC=C(Cl)Cl [trichloroethene], the “Henry solubility constant Hcp” value is reported as 0.00095. With Clc1ccccc1 [chlorobenzene] the “Henry solubility constant Hcp” value was 0.0025. With C=C(Cl)Cl [1,1-dichloroethene] the “Henry solubility constant Hcp” value was 0.00037.
